According to US20250041206A1, “Injectable Suspensions” (ASARINA PHARMA AB, priority 2017, published 2025):

Assay: Recovered dose from pre-filled syringes emptied through 27G needle after storage, not resuspended (gas chromatography)
Type: physicochemical
Settings: suspension in pre-filled syringes during storage
Experimental: Filling weight was 0.5 g with the suspension having a density of about 0.95 g/mL.
The syringes were stored horisontally at 5° C., 25° C./60% RH and 40° C./75% RH, respectively, for up to twelve months. […] The syringes were taken directly from storage and not resuspended, mixed or shaken before ejection and assaying.

With CC(=O)[C@H]1CC[C@H]2[C@@H]3CC[C@H]4C[C@@H](O)CC[C@]4(C)[C@H]3CC[C@]12C [3-beta-hydroxy-5-alpha-pregnan-20-one] the “Primary particle size during storage” value was “remained unchanged”.
